In article PMC1208959 (Virology Journal, 2005):

Tests used:
[1] = system: live HeV
[2] = system: live NiV
[3] = target: NiV F and NiV G glycoproteins (Nipah virus, UniProt Q9IH63); type: cell-based
[4] = target: HeV F and HeV G glycoproteins (Hendra virus, UniProt O89342); type: cell-based
Chain of HeV F and HeV G glycoproteins (O89342 110-546 limits assumed): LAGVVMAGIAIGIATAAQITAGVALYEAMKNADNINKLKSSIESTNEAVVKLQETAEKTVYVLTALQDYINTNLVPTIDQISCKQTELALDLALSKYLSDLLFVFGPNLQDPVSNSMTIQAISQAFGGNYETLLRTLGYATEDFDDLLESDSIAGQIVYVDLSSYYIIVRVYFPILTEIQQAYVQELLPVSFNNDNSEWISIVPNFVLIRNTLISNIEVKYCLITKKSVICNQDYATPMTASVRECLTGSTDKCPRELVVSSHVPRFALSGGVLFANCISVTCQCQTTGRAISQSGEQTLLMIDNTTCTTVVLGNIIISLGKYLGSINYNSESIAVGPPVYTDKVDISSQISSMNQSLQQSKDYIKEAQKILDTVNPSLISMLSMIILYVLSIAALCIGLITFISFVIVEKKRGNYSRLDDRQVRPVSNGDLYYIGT
Chain of HeV F and HeV G glycoproteins (O89342 27-109 partner limits assumed): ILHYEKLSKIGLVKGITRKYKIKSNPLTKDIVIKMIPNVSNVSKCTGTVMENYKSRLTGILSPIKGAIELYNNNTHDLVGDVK

Chain of NiV F and NiV G glycoproteins (Q9IH63 110-546 limits assumed): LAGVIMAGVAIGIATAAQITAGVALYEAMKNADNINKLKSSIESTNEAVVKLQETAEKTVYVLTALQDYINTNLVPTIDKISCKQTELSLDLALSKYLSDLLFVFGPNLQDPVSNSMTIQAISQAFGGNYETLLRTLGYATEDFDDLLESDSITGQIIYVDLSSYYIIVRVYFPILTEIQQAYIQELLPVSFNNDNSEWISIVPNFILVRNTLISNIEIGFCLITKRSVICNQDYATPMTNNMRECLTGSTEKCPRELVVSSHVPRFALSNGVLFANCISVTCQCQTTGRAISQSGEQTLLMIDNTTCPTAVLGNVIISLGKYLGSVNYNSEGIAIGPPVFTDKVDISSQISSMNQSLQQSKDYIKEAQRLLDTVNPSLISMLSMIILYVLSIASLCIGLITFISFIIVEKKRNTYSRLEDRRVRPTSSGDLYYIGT
Chain of NiV F and NiV G glycoproteins (Q9IH63 27-109 partner limits assumed): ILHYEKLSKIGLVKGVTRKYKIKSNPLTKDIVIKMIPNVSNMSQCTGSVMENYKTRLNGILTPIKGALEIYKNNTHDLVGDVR

Molecule | effect on virus infection (in words) [1] | syncytial morphology and size (in words) [1] | effect on virus infection (in words) [2] | syncytial morphology and size (in words) [2] | inhibitory effect on cell-fusion (in words) [3] | inhibitory effect on cell-fusion (in words) [4] | reduction of activity versus N-PEG-NiV FC2 [3] | reduction of activity versus N-PEG-NiV FC2 [4]
KQSSMISLQSQKSINSLPSQIRDYVQKTVLLAEDND [C-PEG-ScNiV FC2, reference compound] | no effect at any concentration tested | identical to those observed in the absence of any peptide | no effect at any concentration tested | identical to those observed in the absence of any peptide | no inhibitory activity | no inhibitory activity |  | 
Ac-KQSSMISLQSQKSINSLPSQIRDYVQKTVLLAEDND-NH2 [capped-ScNiV FC2] |  |  |  |  | no inhibitory effect | no inhibitory effect |  | 
CC[C@H](C)[C@H](NC(=O)[C@H](Cc1ccc(O)cc1)NC(=O)[C@H](CC(=O)O)NC(=O)[C@H](CCCCN)NC(=O)[C@H](CO)NC(=O)[C@H](CCC(N)=O)NC(=O)[C@H](CCC(N)=O)NC(=O)[C@H](CC(C)C)NC(=O)[C@H](CO)NC(=O)[C@H](CCC(N)=O)NC(=O)[C@H](CC(N)=O)NC(=O)[C@H](CCSC)NC(=O)[C@H](CO)NC(=O)[C@H](CO)NC(=O)[C@@H](NC(=O)[C@H](CCC(N)=O)NC(=O)[C@H](CO)NC(=O)[C@H](CO)NC(=O)[C@@H](NC(=O)[C@H](CC(=O)O)NC(=O)[C@@H](NC(=O)[C@H](CCCCN)NC(C)=O)C(C)C)[C@@H](C)CC)[C@@H](C)CC)C(=O)N[C@@H](CCCCN)C(=O)N[C@@H](CCC(=O)O)C(=O)N[C@@H](C)C(=O)N[C@@H](CCC(N)=O)C(=O)N[C@@H](CCCNC(=N)N)C(=O)N[C@@H](CC(C)C)C(=O)N[C@@H](CC(C)C)C(=O)N[C@@H](CC(=O)O)C(=O)N[C@H](C(=O)N[C@H](C(=O)N[C@@H](CC(N)=O)C(=O)N1CCC[C@H]1C(=O)N[C@@H](CO)C(=O)N[C@@H](CC(C)C)C(=O)NCCOCCOCCOCCOCCOCCOCCOCCOCCOCCOCCOCCOCCC(=O)O)C(C)C)[C@@H](C)O [C-PEG NiV FC2] |  |  |  |  |  |  | approximately 20 fold | approximately 20 fold
